The record followed here is patent publication US20240058302A1, “METHOD OF INDUCTION OF TUMOR ASSOCIATED ANTIGENS WITH BRYOSTATIN” (BryoLogyx Inc., priority 2019, published 2024).

One assay concerns CD269 (BCMA). Briefly: Flow cytometry of surface protein expression, NCI-H929 cell line stimulated with bryostatin-1. In kind it is cell-based, human. As to conditions: NCI-H929 (MM) cells; bryostatin-1 0.001-1 nM, 24 or 72 hours; FIG. 1C. The text has this: (§1) Bryostatin-1 has been examined in numerous tumor cell lines representing various hematological tumor types. Surface protein target expression was examined by flow cytometry with human cell lines stimulated with different concentrations of bryostatin-1. Human cell lines representative of different hematological disease indications of leukemia/lymphoma (Toledo, REH, DB), multiple myeloma (NCI-H929, U266B1, RPMI8226), and acute myeloid leukemia (Kasumi-1, AML-193, THP1) were used as target cell lines. Each cell line was treated with bryostatin-1 at 0.001, 0.01, 0.1, or 1 nM for either 24 hours or 72 hours in duplicate prior to measuring the surface molecule expression, quantitatively, of the following protein antigens by flow cytometry: CD19, CD20, CD22, CD33, CD37, CD38, CD123, CD269 (BCMA), and isotype control. Bryostatin-1 caused an upregulation of some antigens and not others.
For orientation: Flow cytometry measures light scatter and fluorescence of single cells or particles in a stream.

The test system of assay [1] is tumor cells derived from relapsed, low-expressing TAA patients. Briefly: PDX model with CD22-directed CAR-T and bryostatin-1. Particulars: bryostatin-1 administered on Day 45 after CD22-directed CAR-T cells on Day 42. Type of assay: in vivo.
Assay [2] concerns CD22. Briefly: Flow cytometry of surface protein expression, REH cell line stimulated with bryostatin-1. Type of assay: cell-based, human. Particulars: REH (ALL) cells; bryostatin-1 0.001-1 nM, 24 or 72 hours; FIG. 1A.
Description: as §1

Another assay relates to CD123. Briefly: Flow cytometry of surface protein expression, AML193 cell line stimulated with bryostatin-1. In kind it is cell-based, human. Particulars: AML193 (AML) cells; bryostatin-1 0.001-1 nM, 24 or 72 hours; FIG. 1B.
Description: as §1

The test system of another assay is CD19. Put plainly: Surface antigen expression on primary B cells from healthy donors, MM or CLL patients. In kind it is cell-based, human. As to conditions: 72 h exposure. The text has this: (§2) The ability of bryostatin-1 at multiple concentrations to modulate the surface expression of multiple antigens (CD5, CD19, CD20, CD22, CD37, CD200/OX2 and CD269/BCMA) at two time points on primary B cells from healthy donors (2 donors) or patients with multiple myeloma (2 patients, MM) or chronic lymphocytic leukemia (4 patients, CLL) was investigated.

The subject of another assay is CD5. The assay is described as above. Type of assay: cell-based, human. Particulars: 24 h exposure.
Description: as §2

Assay [3] has as its system CD22. The assay is described as above. In kind it is cell-based, human.
Description: as §2

Setting [4] is: primary B cells of CLL patients.
The mark [5] stands for this setting: primary B cells of healthy donors.

As to `CCC/C=C/C=C/C(=O)O[C@H]1/C(=C/C(=O)OC)C[C@H]2C[C@H]([C@@H](C)O)OC(=O)C[C@H](O)C[C@@H]3C[C@H](OC(C)=O)C(C)(C)[C@](O)(C[C@@H]4C/C(=C/C(=O)OC)C[C@H](/C=C/C(C)(C)[C@]1(O)O2)O4)O3` [bryostatin-1, Bryostatin-1], in the assay with CD269 (BCMA), the “CD269 (BCMA) cell surface expression” value was “upregulated”. Further, the Tumor response entry in assay [1] was “induced the tumors to respond”. Also, in the assay with CD22 [2], the “CD22 cell surface expression” value is reported as “upregulated”. Further, in the assay on CD123, the “CD123 cell surface expression” value is reported as “upregulated”. The results for the CD19 expression result in the assay with CD19 (setting [4]), in the assay with CD19 (primary B cells of MM patients) and in the assay with CD19 (setting [5]) were “increases”, “not” and “increases”, respectively. The CD5 expression result with CD5 (setting [4]) is reported as “not”; in the assay on CD5 (primary B cells of MM patients), “increases”; in the assay on CD5 (setting [5]), “not”. Moreover, the CD22 expression entry in the assay on CD22 [3] (setting [4]) was “upregulated”; in the assay with CD22 [3] (primary B cells of MM patients) it was “not”; in the assay with CD22 [3] (setting [5]), “upregulated”.
